Columns and labels:
MgrA [1] = target: T1, MgrA (Staphylococcus aureus, UniProt P0C1S0); assay: thermal shift assay (Sypro Orange); type: binding; conditions: Tm is lowered by the compound; MgrA to Mo-A 1:10 molar ratio, 10 mM Tris, 150 mM NaCl, pH 7.5
T1 construct: homodimer in nature

MgrA [2] = target: T1, MgrA; assay: intrinsic fluorescence quenching (ex […] nm), Stern-Volmer, linear regression; type: binding; conditions: PBS, MgrA 2 nM; static quenching
MgrA [3] = target: T1, MgrA; assay: fluorescence anisotropy, inhibition of MgrA binding to DNA probe; type: biochemical

T1 sequence (P0C1S0 2-147): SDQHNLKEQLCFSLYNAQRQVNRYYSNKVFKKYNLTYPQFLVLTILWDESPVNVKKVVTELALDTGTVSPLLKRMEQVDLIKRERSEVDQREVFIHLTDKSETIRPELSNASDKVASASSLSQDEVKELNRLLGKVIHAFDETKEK

## Cc1c(O)c(C)c2c(c1O)C(=O)[C@H](Cc1ccc3c(c1)OCO3)CO2 [methylophiopogonanone A]
MgrA [1]
  ∆Tm (decrease): > 3 °C
MgrA [2]
  KA: 62500 L/mol
MgrA [3]
  IC50: 95.9 µM

— PMC10899606, “Thwarting resistance: MgrA inhibition with methylophiopogonanone a unveils a new battlefront against S. aureus” (NPJ Biofilms and Microbiomes, 2024)
